From PubChem BioAssay AID330 (DTP/NCI, 2004)
Several values for one entry are separate records, joined by “and”; a condition that tells them apart may be missing. Equal values may be shown once. Inconclusive results and toxic doses are left out. Rule for the calls: active = survival T/C of 150% or more; inactive = T/C below 125% in these data.

Test system: P388 leukemia ip, CD2F1 mice, survival T/C
Test: NCI In Vivo Anticancer Drug Screen. Data for tumor model P388 Leukemia (intraperitoneal) in CD2F1 (CDF1) mice
Settings: endpoint: median survival time, higher = longer survival
In short: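 Mice carrying the transplanted tumor received test compound or vehicle. Survival was recorded in each group, and the value is the treated-group measurement divided by that of the vehicle-treated control group.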

[1] = dose: 25.0 mg/kg/injection, schedule: Q01DX005 (ip), vehicle: saline with Tween-80
[2] = dose: 50.0 mg/kg/injection, schedule: Q01DX005 (ip), vehicle: saline with Tween-80
[3] = dose: 50.0 mg/kg/injection, schedule: Q01DX005 (ip), vehicle: Klucel (hydroxypropylcellulose) (HPC)
[4] = dose: 100.0 mg/kg/injection, schedule: Q01DX005 (ip), vehicle: Klucel (hydroxypropylcellulose) (HPC)
[5] = dose: 200.0 mg/kg/injection, schedule: Q01DX005 (ip), vehicle: Klucel (hydroxypropylcellulose) (HPC)
[6] = dose: 60.0 mg/kg/injection, schedule: Q01DX005 (ip), vehicle: saline with Tween-80
[7] = dose: 120.0 mg/kg/injection, schedule: Q01DX005 (ip), vehicle: saline with Tween-80
[8] = dose: 240.0 mg/kg/injection, schedule: Q01DX005 (ip), vehicle: saline with Tween-80
[9] = dose: 50.0 mg/kg/injection, schedule: Q01DX009 (ip), vehicle: saline with Tween-80
[10] = dose: 100.0 mg/kg/injection, schedule: Q01DX009 (ip), vehicle: saline with Tween-80
[11] = dose: 200.0 mg/kg/injection, schedule: Q01DX009 (ip), vehicle: saline with Tween-80
[12] = dose: 50.0 mg/kg/injection, schedule: Q01DX009 (ip), vehicle: saline
[13] = dose: 100.0 mg/kg/injection, schedule: Q01DX009 (ip), vehicle: saline
[14] = dose: 200.0 mg/kg/injection, schedule: Q01DX009 (ip), vehicle: saline
[15] = dose: 6.25 mg/kg/injection, schedule: Q01DX009 (ip), vehicle: saline with Tween-80
[16] = dose: 25.0 mg/kg/injection, schedule: Q01DX009 (ip), vehicle: saline with Tween-80
[17] = dose: 60.0 mg/kg/injection, schedule: Q01DX005 (ip), vehicle: saline
[18] = dose: 120.0 mg/kg/injection, schedule: Q01DX005 (ip), vehicle: saline
[19] = dose: 240.0 mg/kg/injection, schedule: Q01DX005 (ip), vehicle: saline

Measured: T/C

CC1=C(C)CN(CCc2c[nH]c3ccccc23)C(C#N)C1 (stereo not drawn)
inactive: dose: 12.5 mg/kg/injection, schedule: Q01DX005 (ip), vehicle: saline with Tween-80 102 % of control | [1] 108 % of control | [2] 102 % of control and 117 % of control

Cc1cc(C)c(OC(=O)NCCCl)c(C)c1
inactive: [3] 97 % of control | [4] 97 % of control | [5] 96 % of control

N[C@@H](Cc1ccccc1)C(=O)NCCNC(=O)[C@@H](N)Cc1ccccc1
inactive: [6] 103 % of control | [7] 100 % of control | [8] 104 % of control

O=C1NN2CCN=C2c2cccnc21
inactive: dose: 3.75 mg/kg/injection, schedule: Q01DX005 (ip), vehicle: saline with Tween-80 100 % of control | dose: 7.5 mg/kg/injection, schedule: Q01DX005 (ip), vehicle: saline with Tween-80 95 % of control | dose: 15.0 mg/kg/injection, schedule: Q01DX005 (ip), vehicle: saline with Tween-80 100 % of control and 93 % of control | [6] 101 % of control

COCNC(=S)c1ccc(C(N)=O)nc1C(=O)NC(C)(C)C
inactive: [2] 98 % of control | dose: 100.0 mg/kg/injection, schedule: Q01DX005 (ip), vehicle: saline with Tween-80 100 % of control | dose: 200.0 mg/kg/injection, schedule: Q01DX005 (ip), vehicle: saline with Tween-80 99 % of control

Cc1cc(-c2ccccc2)[s+]s1
inactive: dose: 12.5 mg/kg/injection, schedule: Q01DX009 (ip), vehicle: distilled water + Tween-80 101 % of control | dose: 25.0 mg/kg/injection, schedule: Q01DX009 (ip), vehicle: distilled water + Tween-80 115 % of control | dose: 50.0 mg/kg/injection, schedule: Q01DX009 (ip), vehicle: distilled water + Tween-80 117 % of control | dose: 100.0 mg/kg/injection, schedule: Q01DX009 (ip), vehicle: distilled water + Tween-80 111 % of control | dose: 200.0 mg/kg/injection, schedule: Q01DX009 (ip), vehicle: distilled water + Tween-80 117 % of control

O=C(Nc1cccc2c1C(O)c1ccccc1-2)C(Cl)Cl (stereo not drawn)
inactive: [6] 97 % of control | [7] 98 % of control | [8] 104 % of control

Oc1c(C(c2ccccc2)N2CCOCC2)ccc2ccccc12 (stereo not drawn)
inactive: [9] 109 % of control | [10] 109 % of control | [11] 104 % of control

O=C(O)C(Oc1ccc(Cl)cc1Cl)C(Oc1ccc(Cl)cc1Cl)C(=O)O (stereo not drawn)
inactive: dose: 60.0 mg/kg/injection, schedule: Q01DX005 (ip), vehicle: Klucel (hydroxypropylcellulose) (HPC) 101 % of control | dose: 120.0 mg/kg/injection, schedule: Q01DX005 (ip), vehicle: Klucel (hydroxypropylcellulose) (HPC) 101 % of control | dose: 240.0 mg/kg/injection, schedule: Q01DX005 (ip), vehicle: Klucel (hydroxypropylcellulose) (HPC) 100 % of control

Cc1ccc(C(C)(C)C[P+](C)(c2ccccc2)c2ccccc2)cc1
inactive: dose: 12.5 mg/kg/injection, schedule: Q01DX009 (ip), vehicle: Klucel (hydroxypropylcellulose) (HPC) 105 % of control | dose: 25.0 mg/kg/injection, schedule: Q01DX009 (ip), vehicle: Klucel (hydroxypropylcellulose) (HPC) 103 % of control

Cc1nc(-c2ccc(Cl)cc2)c(Cc2c(O)ccc3ccccc23)c(=O)[nH]1
inactive: [12] 102 % of control | [13] 102 % of control | [14] 102 % of control

O=C(Nc1cccc(Cl)c1)OCCN1CCNC1=S
inactive: dose: 50.0 mg/kg/injection, schedule: Q01DX009 (ip), vehicle: Klucel (hydroxypropylcellulose) (HPC) 116 % of control | dose: 100.0 mg/kg/injection, schedule: Q01DX009 (ip), vehicle: Klucel (hydroxypropylcellulose) (HPC) 106 % of control | dose: 200.0 mg/kg/injection, schedule: Q01DX009 (ip), vehicle: Klucel (hydroxypropylcellulose) (HPC) 105 % of control

CCCCCCCCCCCCCCCCSc1ccncc1NN=O
inactive: dose: 3.12 mg/kg/injection, schedule: Q01DX009 (ip), vehicle: saline with Tween-80 99 % of control | [15] 106 % of control | dose: 12.5 mg/kg/injection, schedule: Q01DX009 (ip), vehicle: saline with Tween-80 101 % of control | [16] 105 % of control | [9] 99 % of control and 100 % of control | [10] 113 % of control

N#CCCN1CCC(N)=NC1=NC#N
inactive: dose: 25.0 mg/kg/injection, schedule: Q01DX005 (ip), vehicle: Klucel (hydroxypropylcellulose) (HPC) 100 % of control | [3] 112 % of control | [4] 94 % of control | [5] 96 % of control

O=C1c2ccccc2C(=O)C(Cl)C1Cl (stereo not drawn)
inactive: dose: 1.56 mg/kg/injection, schedule: Q01DX009 (ip), vehicle: saline with Tween-80 100 % of control | dose: 3.13 mg/kg/injection, schedule: Q01DX009 (ip), vehicle: saline with Tween-80 101 % of control

C[C@@H]1C[C@H](C)OC(CCl)O1 (stereo partly drawn)
inactive: [17] 100 % of control | [18] 102 % of control | [19] 98 % of control

CC1SC(C)C1=O (stereo not drawn)
inactive: [17] 109 % of control | [18] 107 % of control | [19] 100 % of control

C[N+](C)=c1ccc2nc3ccc(N)cc3sc-2c1
inactive: dose: 3.13 mg/kg/injection, schedule: Q01DX009 (ip), vehicle: saline 106 % of control | [15] 87 % of control | dose: 6.25 mg/kg/injection, schedule: Q01DX009 (ip), vehicle: saline 94 % of control | dose: 12.5 mg/kg/injection, schedule: Q01DX009 (ip), vehicle: saline 95 % of control | [16] 102 % of control and 103 % of control | dose: 25.0 mg/kg/injection, schedule: Q01DX009 (ip), vehicle: saline 107 % of control | [9] 95 % of control | [12] 104 % of control

CC1=C(Sc2ccc(Br)cc2)C(N)Nc2nc(N)nc(N)c21 (stereo not drawn)
inactive: [6] 89 % of control | [7] 89 % of control

CN(C)Cc1ncccc1O
inactive: [13] 102 % of control and 95 % of control | [14] 100 % of control and 112 % of control | dose: 400.0 mg/kg/injection, schedule: Q01DX009 (ip), vehicle: saline 113 % of control

CCOC(=O)CCC(=O)Nc1ccccc1C#N
inactive: [12] 102 % of control | [13] 93 % of control | [14] 102 % of control

CC(=O)OC(C)C(C)N(C)C (stereo not drawn)
inactive: dose: 100.0 mg/kg/injection, schedule: Q04DX003 (ip), vehicle: saline 94 % of control | dose: 200.0 mg/kg/injection, schedule: Q04DX003 (ip), vehicle: saline 101 % of control

C=CCOc1ccccc1/C(CC)=N/N(C)C
inactive: [12] 111 % of control | [13] 100 % of control

c1ccc(CN2CC[N+](Cc3ccccc3)=C2C2=[N+](Cc3ccccc3)CCN2Cc2ccccc2)cc1
inactive: dose: 12.5 mg/kg/injection, schedule: Q01DX009 (ip), vehicle: suspension in saline 89 % of control | dose: 25.0 mg/kg/injection, schedule: Q01DX009 (ip), vehicle: suspension in saline 96 % of control | dose: 50.0 mg/kg/injection, schedule: Q01DX009 (ip), vehicle: suspension in saline 91 % of control

CCCCCCN=Cc1c(O)c(O)c(C(C)C)c2cc(C)c(-c3c(C)cc4c(C(C)C)c(O)c(O)c(C=NCCCCCC)c4c3O)c(O)c12
inactive: dose: 12.0 mg/kg/injection, schedule: Q01DX005 (ip), vehicle: saline with Tween-80 100 % of control | [1] 92 % of control | [2] 96 % of control

CCOC1=C(C#N)C(SC)=CS(C)(=O)=C1 (stereo not drawn)
inactive: dose: 50.0 mg/kg/injection, schedule: Q04DX003 (ip), vehicle: Klucel (hydroxypropylcellulose) (HPC) 98 % of control | dose: 100.0 mg/kg/injection, schedule: Q04DX003 (ip), vehicle: Klucel (hydroxypropylcellulose) (HPC) 97 % of control | dose: 200.0 mg/kg/injection, schedule: Q04DX003 (ip), vehicle: Klucel (hydroxypropylcellulose) (HPC) 101 % of control

O=NN(c1ccc(Br)cc1)c1ccccn1
inactive: dose: 25.0 mg/kg/injection, schedule: Q01DX009 (ip), vehicle: other 102 % of control | dose: 50.0 mg/kg/injection, schedule: Q01DX009 (ip), vehicle: other 109 % of control | [9] 100 % of control | dose: 100.0 mg/kg/injection, schedule: Q01DX009 (ip), vehicle: other 109 % of control | [10] 100 % of control | dose: 200.0 mg/kg/injection, schedule: Q01DX009 (ip), vehicle: other 114 % of control | [11] 97 % of control | dose: 400.0 mg/kg/injection, schedule: Q01DX009 (ip), vehicle: other 112 % of control
